The test system of test [1] is Hdh-NPFR. Briefly: Western blot of ERK1/2 phosphorylation in Hdh-NPFR-expressing HEK293 cells. The class given is cell-based, Haliotis discus hannai. Conditions: inhibitor 10^–5 M pre-incubated 1 h, then Hdh-NPF (10^–8, 10^–6 M) 5 min; Fig. 3f. As to the method:
HEK293 cells were seeded into 6-well plates (0.3 × 10^6 cells/well) and transfected with 3 μg of pcDNA3-HA-Hdh-NPFR or pcDNA3 as described for the reporter assays. At 36 h post-transfection, the transfected cells were treated with Hdh-NPF (10^–9–10^–7 M), TPA (10^–7 M), or the same volume of peptide-free medium as a vehicle for 10 min. After washing twice with PBS, the cells were lysed with RIPA buffer [150 mM NaCl, 1% Triton X-100, 0.5% sodium deoxycholate, 0.1% sodium dodecyl sulfate (SDS), 50 mM Tris–Cl, pH 8.0] including protease inhibitor cocktail and PhosSTOP (Roche, Basel, Switzerland) according to the manufacturer’s recommendation. To examine signaling pathways, Hdh-NPFR-transfected cells were pre-incubated with serum-free DMEM for 6 h at 37 °C and exposed to a PKA inhibitor (H89, 10^–5 M; Sigma-Aldrich) or PKC inhibitor (Gӧ6983, 10^–5 M; Sigma-Aldrich) for a further 60 min. After replacing the medium with fresh serum-free DMEM, the cells were exposed to Hdh-NPF peptide (10^–8, 10^–6 M) for 5 min at 37 °C. The cell lysates were separated by 10% SDS–polyacrylamide gel electrophoresis and subsequently transferred to nitrocellulose membranes (Pall, Ann Arbor, MI, USA). […] The reactive bands were monitored using C-Digit 3600 Bolt Scanner (LI-COR, Lincoln, NE, USA).

Test [2] has as its system Hdh-NPFR. In words: Ca2+ mobilization (aequorin luminescence) assay in Hdh-NPFR-transfected CHO-K1 cells. The class given is cell-based, Haliotis discus hannai. Conditions: Fig. 3g, Fig. S7b. How it is done: CHO-K1 cells were maintained in DMEM-F12 Nutrient Mixture Ham supplemented with 10% FBS (Welgene) at 37 °C in 5% CO2. Cells grown in a monolayer to 60% confluency in 100 mm dishes (1.5 × 10^6 cells) were transiently transfected with plasmids using FuGENE6 transfection reagent (Promega), according to the manufacturer’s recommendations. In brief, the transfection medium was prepared by combining 600 μl of DMEM-F12 with 2 μg of pcDNA3-HA-Hdh-NPFR plasmid together with 2 μg of a Ca^2+ reporter aequorin plasmid with or without the promiscuous Gα15 expression plasmid (kind gifts from Dr. Young-Joon Kim, Gwangju Institute of Science and Technology, Gwangju, Korea) with 18 μl of FuGENE6 in a 5 ml polystyrene tube and incubated for 25 min at room temperature. The transfection mixture was added to CHO-K1 cells in 10 ml of fresh FBS-free medium and the cells were incubated at 37 °C in 5% CO2 overnight. On the day of the assay, the cells were detached from the culture dish by incubating with 3 ml of 5 mM EDTA in phosphate-buffered saline (PBS, pH 7.2; Thermo Fisher Scientific, Waltham, MA, USA) for 5 min. The cells were washed in 10 ml of phenol red-free DMEM/F-12 with 0.1% bovine serum albumin (BSA) and 1% P/S (DMEM-prf), and collected by brief centrifugation. Probenecid (1.25 mM final concentration, Invitrogen) and coelenterazine (5 μM, Gold Biotech., St. Louis, MO, USA) were added to resuspended CHO-K1 cells in 5 ml of DMEM-prf medium and the cells were gently agitated for 2.5 h using a magnetic stirrer at room temperature shielded from light. The cell suspension was diluted four times with DMEM-prf and incubated for a further 30 min. Just before the Ca^2+ mobilization assay, peptide solutions were prepared in DMEM-prf and 50 μl aliquots were dispensed into 3 or 4 wells/peptide on 96-well microplates. DMEM-prf was used as a negative control. While stirring gently, 50 μl of the cell suspension was injected into a luminescence microplate reader (Berthold Tech.) using an automated injector unit. Luminescence was recorded for 20 s and for a further 10 s after injection of DMEM-prf including 0.2% Triton X-100 to measure the total Ca^2+ response. The average luminescence from multiple replicate wells for a single concentration was calculated and normalized to the largest receptor response after subtraction of background values obtained from negative controls. Dose–response curves and EC50 values were obtained using Sigma Plot v.13 (Systat Software, Inc., San Jose, CA, USA).

The subject of test [3] is pcDNA3-transfected HEK293 cells. Briefly: CRE-Luc luciferase reporter assay in pcDNA3-transfected HEK293 cells. Particulars: pcDNA3-transfected HEK293 cells (no receptor); Fig. 3d. Format: cell-based, human. How it is done: HEK293 cells were cultured in Dulbecco’s modified Eagle medium (DMEM; Gibco, Loughborough, UK) containing 1% penicillin/streptomycin (P/S; Invitrogen) and 10% fetal bovine serum (FBS; Hyclone, GE Healthcare, Chicago, IL, USA). Sixteen hours before transfection, cultured HEK293 cells were seeded into 24-well plates (5 × 10^4 cells/well). The cells were transfected with a luciferase reporter plasmid of CRE-Luc[68] or SRE-Luc[69] using a polyethyleneimine transfection reagent (Sigma-Aldrich, St. Louis, MO, USA), along with pcDNA3-HA plasmids containing Hdh-NPFR-related receptors, human NPYR1 and NPYR2 (kindly provided by Dr. Annette G. Beck-Sickinger, Leipzig University, Germany), and a pRSV-β-galactosidase expression plasmid as an internal control (100 ng of each plasmid/well) as previously reported. After 3 h of transfection, the culture medium was replaced by new DMEM with 1% P/S and 10% FBS, and the HEK293 cells were further cultured for 30 h and then maintained in DMEM without FBS for 16 h. […] The cells were lysed with a luciferase cell culture lysis buffer (Promega, Madison, WI, USA) and luciferase activities were analyzed using a microplate-luminometer (Berthold Tech., Bad Wildbad, Germany) and normalized by the β-galactosidase values detected by an absorbance microplate reader (Tecan, Mannedorf, Switzerland) at 405 nm.

No end group written: not given here.

On to `COc1ccc2c(c1)c(C1=C(c3c[nH]c4ccccc34)C(=O)NC1=O)cn2CCCN(C)C` [Gӧ6983], for which the “Effect of inhibitor on Hdh-NPFR-mediated activation of ERK1/2” value in the test on Hdh-NPFR [1] is “abolished”.

On to “QLRQYLKALNEYYAIVGRPRF-NH2 [Hdh-NPF-C21, truncated Hdh-NPF peptide]”, for which, in the test on Hdh-NPFR [2], the “Ca2+ mobilization response” value was “could not induce”. For the compound “YAIVGRPRF-NH2 [Hdh-NPF-C9, truncated Hdh-NPF peptide]”, the “Ca2+ mobilization response” value in the test on Hdh-NPFR [2] is listed as “could not induce”. As to “YPSKPDNPGEDAPAEQLRQYLKALNEYYAIVGRPRF-NH2 [NPY-F, chimeric mixed peptide for Hdh-NPF and human NPY]”, the “Ca2+ mobilization response” value with Hdh-NPFR [2] is reported as “could not activate”. Same read-out and setting: for “QDAMLAPPDRPSEFRSPD-NH2 [Hdh-NPF-N18, truncated Hdh-NPF peptide]” the value was “could not induce”. For “QDAMLAPPDRPSEFRSPDQLRQYLKALNEYYAIVGRPRF-NH2 [Hdh-NPF]”, the response in test [3] was half-maximal at 596 nM (EC50).

The values are drawn from article PMC8536682, “NPF activates a specific NPF receptor and regulates food intake in Pacific abalone Haliotis discus hannai” (Scientific Reports, 2021).
